The target in data set [1] is Human CB2R (Cannabinoid receptor 2) (Homo sapiens, UniProt P34972). Kind of data set: CB-2 in vitro cAMP (HTRF) assay. The data set is classed as cell-based. Particulars: HEK cells, cAMP HTRF, 250 nM forskolin; mean where tested more than once; read-out: CB2 HEK_cAMP EC50. A digest of the protocol:
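HEK-293 cells stably expressing receptor, plated overnight at 4E5 cells/mL, tested with 1/3 serial dilutions of compound in HBSS/HEPES/BSA buffer with 0.5 mM IBMX and forskolin (diluted to 1.5 μM in buffer). cAMP measured by competitive HTRF immunoassay (d2-cAMP, cryptate anti-cAMP), signal inversely proportional to cAMP.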

Data set [2] can be described thus: Mouse Fast PK/BBB: plasma and brain concentration. The data set is classed as in vivo, Male C57bl/6j mice. Particulars: mice; for concentration at 4 h / concentration at 1 h: male, C57bl/6j, mouse; for concentration at 4 h / Brain Mean Conc. ± Std. Dev: 4 hr. The protocol:
Male Sprague Dawley rats are ordered from Charles River (225-250 gm upon arrival). They are fed standard chow diet (Purina 5001) and housed 2 per cage. Male C57bl/6j mice are ordered from Charles River at 22-25 g and housed 3 per cage. They are fed standard chow (Purina 5001). All animals are housed in a temperature-controlled room with 12-hour light/dark cycle. Animals are given food and water ad libitum, except as noted.
Test compounds are administered by oral gavage (5 ml kg^−1 or 10 ml kg^−1).
Male C57bl/6j mice were dosed with test compounds at 20 or 30 mg/kg. Plasma was collected via retro-orbital bleeding at 1 hr and 4 hrs after dosing. Whole brain without cerebellum was collected at 4 hrs after dosing. Wet brain weight was recorded before freezing. Brains were homogenized in saline and sent for analysis for determination of concentration of test compound.
Representative compounds of formula (I) of the present invention were tested according to the procedure described above, with results as listed in Table BIO-2 below.

Where [3] appears, read: brain (whole brain without cerebellum), dose 30 mg/kg oral, read-out: Brain Mean Conc. ± Std. Dev.
Setting [4] is: plasma, dose 30 mg/kg oral, read-out: Plasma Mean Conc. ± Std. Dev.
The mark [5] stands for this setting: plasma, dose 20 mg/kg oral, read-out: Plasma Mean Conc. ± Std. Dev.
Where [6] appears, read: brain (whole brain without cerebellum), dose 20 mg/kg oral, read-out: Brain Mean Conc. ± Std. Dev.

Molecules are shown by their SMILES. Like-named read-outs stand apart in the source and are kept apart here.

Sequence of Human CB2R (Cannabinoid receptor 2) (P34972 whole entry): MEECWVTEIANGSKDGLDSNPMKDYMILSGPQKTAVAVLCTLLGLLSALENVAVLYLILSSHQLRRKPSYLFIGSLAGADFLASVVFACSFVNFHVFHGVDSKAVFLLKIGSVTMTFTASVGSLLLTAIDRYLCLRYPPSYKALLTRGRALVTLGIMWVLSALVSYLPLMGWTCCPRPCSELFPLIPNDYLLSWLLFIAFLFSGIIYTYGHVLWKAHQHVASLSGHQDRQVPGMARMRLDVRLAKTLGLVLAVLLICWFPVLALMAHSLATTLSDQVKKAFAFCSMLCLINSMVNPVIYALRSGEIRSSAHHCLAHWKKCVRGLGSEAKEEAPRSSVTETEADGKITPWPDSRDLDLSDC

`O=C(O)c1cc(F)cc(CN2CCC(n3c(C4CC4)nc4ccc(C(c5ccc(Cl)cc5)c5ccc(Cl)cc5)cc43)CC2)c1` [Example 89]: in data set [1], the EC50 was found to be 7.9 µM. Moreover, the concentration at 4 h in data set [2] (setting [3]) turned out to be 129 ± 33.2 ng/mL. Besides, in data set [2] (setting [4]), the concentration at 1 h is 7190 ± 488 ng/mL and the concentration at 4 h is 4430 ± 227 ng/mL.
On the same counts, the results for `O=C(O)c1ccc(F)c(CN2CCC(n3c(C4CC4)nc4ccc(C(c5ccc(Cl)cc5)c5ccc(Cl)cc5)cc43)CC2)c1` [Example 92] are 5.19 µM, 89.2 ± 27.7 ng/mL, 11400 ± 2020 ng/mL and 5190 ± 277 ng/mL.
As to `O=C(O)c1ccc(CN2CCC(n3c(C4CC4)nc4ccc(C(c5ccc(Cl)cc5)c5ccc(Cl)cc5)cc43)CC2)nc1` [Example 124], the EC50 in data set [1] was > 10 µM. Moreover, in data set [2] (setting [4]), the concentration at 1 h came out at 2020 ± 555 ng/mL and the concentration at 4 h came to 297 ± 107 ng/mL. In data set [2] (dose 30 mg/kg oral), the “Brain Mean Conc. ± Std. Dev” value is recorded as “BLOQ ± NA”.
`O=C(O)c1cccc(CN2CCC(n3c(C4CC4)nc4ccc(C(c5ccc(Cl)cc5)c5ccc(Cl)cc5)cc43)CC2)n1` [Example 125]: the EC50 in data set [1] was found to be 9.9 µM. In data set [2] (setting [4]), the concentration at 1 h worked out at 4490 ± 1010 ng/mL and the concentration at 4 h is 390 ± 157 ng/mL. Moreover, the “Brain Mean Conc. ± Std. Dev” value in data set [2] (dose 30 mg/kg oral) is recorded as “BLOQ ± NA”.
With `O=C(O)c1ccc(CN2CCC(n3c(C4CC4)nc4ccc(C(c5ccc(Cl)cc5)c5ccc(Cl)cc5)cc43)CC2)o1` [Example 129], the half-maximal effective concentration (EC50) in data set [1] was > 10 µM. In data set [2] (setting [4]), the concentration at 1 h is 1370 ± 749 ng/mL and the concentration at 4 h was found to be 84.6 ± 62.9 ng/mL. Also, the “Brain Mean Conc. ± Std. Dev” value in data set [2] (dose 30 mg/kg oral) is “BLOQ ± NA”.
With `O=C(O)c1cccc(CN2CCC(n3c(C4CC4)nc4ccc(C(c5ccc(Cl)cc5)c5ccc(Cl)cc5)cc43)CC2)c1` [Example 148], in data set [1], the EC50 amounted to 4.93 µM. Also, the concentration at 4 h in data set [2] (setting [3]) worked out at 417 ± 50 ng/mL. For the same compound, in data set [2] (setting [4]), the concentration at 1 h came out at 13500 ± 273 ng/mL and the concentration at 4 h is 7750 ± 3100 ng/mL.
Regarding `O=C(O)c1csc(S(=O)(=O)N2CCC(n3c(C4CC4)nc4ccc(C(c5ccc(Cl)cc5)c5ccc(Cl)cc5)cc43)CC2)c1` [Example 221], the EC50 in data set [1] was found to be 3.3 µM. In data set [2] (setting [5]), the concentration at 1 h is 160 ± 69.7 ng/mL and the concentration at 4 h amounted to 33.8 ± 11.2 ng/mL. In addition, the “Brain Mean Conc. ± Std. Dev” value in data set [2] (dose 20 mg/kg oral) is listed as “BLOQ ± NA”.
With `O=C(O)c1ccc(S(=O)(=O)N2CCC(n3c(C4CC4)nc4ccc(C(c5ccc(Cl)cc5)c5ccc(Cl)cc5)cc43)CC2)o1` [Example 232], the EC50 in data set [1] came out at 8.86 µM. Further, in data set [2] (setting [4]), the concentration at 1 h came to 81.9 ± 22.7 ng/mL and the concentration at 4 h was 7.11 ± 6.55 ng/mL. Further, the “Brain Mean Conc. ± Std. Dev” value in data set [2] (dose 30 mg/kg oral) is “BLOQ ± NA”.
As to `O=C(O)c1cccc(S(=O)(=O)N2CCC(n3c(C4CC4)nc4ccc(C(c5ccc(Cl)cc5)c5ccc(Cl)cc5)cc43)CC2)c1` [Example 242], in data set [1], the EC50 came out at 5.69 µM. In addition, in data set [2] (setting [5]), the concentration at 1 h is 789 ng/mL and the concentration at 4 h came to 62.1 ± 20 ng/mL. Besides, the “Brain Mean Conc. ± Std. Dev” value in data set [2] (dose 20 mg/kg oral) is listed as “BLOQ ± NA”.
`O=S(=O)(c1cccc(O)c1)N1CCC(n2c(C3CC3)nc3ccc(C(c4ccc(Cl)cc4)c4ccc(Cl)cc4)cc32)CC1` [Example 259]: in data set [1], the EC50 was > 10 µM. For the same compound, in data set [2] (setting [5]), the concentration at 1 h is 1420 ± 489 ng/mL and the concentration at 4 h stood at 436 ± 83 ng/mL. The “Brain Mean Conc. ± Std. Dev” value in data set [2] (dose 20 mg/kg oral) is “BLOQ ± NA”.
Taken in the same sequence, the figures for `O=C(O)c1ccc(S(=O)(=O)N2CCC(n3c(C4CC4)nc4ccc(C(c5ccc(Cl)cc5)c5ccc(Cl)cc5)cc43)CC2)cc1` [Example 276] were 2.61 µM, 227 ± 67.2 ng/mL, 27.7 ± 13.1 ng/mL and “BLOQ ± NA”.
Turning to `CCc1nc2ccc(C(c3ccc(Cl)cc3)c3ccc(Cl)cc3)cc2n1CC1CCN(S(=O)(=O)C(F)(F)F)CC1` [Example 315], the EC50 in data set [1] was 5.4 µM. Also, the concentration at 4 h in data set [2] (setting [6]) came out at 48.4 ± 0.4 ng/mL. Further, in data set [2] (setting [5]), the concentration at 1 h stood at 2870 ± 441 ng/mL and the concentration at 4 h came to 785 ± 191 ng/mL.
On the same counts, the results for `O=S(=O)(N1CCC(Cn2c(C3CC3)nc3ccc(C(c4ccc(Cl)cc4)c4ccc(Cl)cc4)cc32)CC1)C(F)(F)F` [Example 316] are 3.86 µM, 30.2 ± 5.2 ng/mL, 3980 ± 448 ng/mL and 247 ± 36 ng/mL.
On the same counts, the results for `O=S(=O)(N1CCC(n2c(C3CCC3)nc3ccc(C(c4ccc(Cl)cc4)c4ccc(Cl)cc4)cc32)CC1)C(F)(F)F` [Example 318] are > 10 µM, 69.4 ± 4.4 ng/mL, 5880 ± 1290 ng/mL and 2130 ± 245 ng/mL.
For the compound `COc1ccc(C(c2ccc(OC)cc2)c2ccc3nc(C4CCC4)n(C4CCN(S(=O)(=O)C(F)(F)F)CC4)c3c2)cc1` [Example 320], the EC50 in data set [1] is > 10 µM. The results for the concentration at 4 h in data set [2] (setting [6]) and in data set [2] (setting [5]) were 167 ± 9.4 ng/mL and 1610 ± 207 ng/mL, respectively. In data set [2] (setting [5]), the concentration at 1 h turned out to be 2900 ± 245 ng/mL.
Taken in the same sequence, the figures for `CCc1nc2ccc(C(c3ccc(Cl)cc3)c3ccc(Cl)cc3)cc2n1C1CCN(S(=O)(=O)C(F)(F)F)CC1` [Example 328] were > 14 µM, 99.3 ± 13.3 ng/mL, 1600 ± 109 ng/mL and 2640 ± 337 ng/mL.
Taken in the same sequence, the figures for `O=S(=O)(N1CCC(n2c(C3CC3)nc3ccc(C(c4ccc(Cl)cc4)c4ccc(Cl)cc4)cc32)CC1)C(F)(F)F` [Example 335] were > 10 µM, 104 ± 19 ng/mL, 2260 ± 822 ng/mL and 3940 ± 480 ng/mL.
For `CCc1nc2ccc(C(c3ccc(Cl)cc3)c3nccs3)cc2n1C1CCN(S(=O)(=O)C(F)(F)F)CC1` (stereo not drawn) [Example 400], in data set [1], the EC50 was > 10 µM. Besides, in data set [2] (setting [6]), the concentration at 4 h was found to be 292 ± 61 ng/mL. Also, in data set [2] (setting [5]), the concentration at 1 h worked out at 1550 ± 65.7 ng/mL and the concentration at 4 h worked out at 947 ± 191 ng/mL.

The EC50 is the concentration that produces a half-maximal response.

The values above are taken from patent US20190031618A1, “BENZIMIDAZOLE DERIVATIVES USEFUL AS CB-1 INVERSE AGONISTS” (Janssen Pharmaceutica NV, priority 2015, published 2019).
